Data reported in PubChem BioAssay (NCI).
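Test compounds were applied to cells in 96-well plates for 48 hours at 5 doses. GI50: concentration for 50% inhibition of growth. At the TGI there is no net growth.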

Experiments:
Test in all cases: NCI anticancer screen, dose series, 48 h
[1] = tested on: HCT-15 colon
[2] = tested on: M14 melanoma
[3] = tested on: SNB-75 CNS
[4] = tested on: OVCAR-8 ovarian
[5] = tested on: UACC-62 melanoma
[6] = tested on: ACHN renal
[7] = tested on: A498 renal
[8] = tested on: OVCAR-5 ovarian
[9] = tested on: SF-539 CNS
[10] = tested on: NCI/ADR-RES ovarian

SMILES	TGI [1]	TGI [2]	TGI [3]	TGI [4]	TGI [5]	TGI [6]	TGI [7]	TGI [8]	TGI [9]	GI50 [1]	GI50 [10]	TGI [10]	GI50 [2]	GI50 [7]	GI50 [8]	GI50 [6]	GI50 [3]	GI50 [4]	GI50 [5]	GI50 [9]
CCOC(=O)C1(Cc2ccccc2)CCCCCN1 (stereo not given)	> 100 µM	> 100 µM	92.6 µM	> 100 µM	> 100 µM	> 100 µM														
COc1ccc(C(N)=O)cc1N=NN(C)C	> 100 µM	> 100 µM	> 100 µM	> 100 µM	> 100 µM	> 100 µM	> 100 µM	> 100 µM	> 100 µM											
C=C=C(CC)C(C(=O)OC)N(CC)CC (stereo not given)		> 100 µM	> 100 µM	> 100 µM	> 100 µM	> 100 µM	> 100 µM		> 100 µM											
COc1ccc2c(c1OC)C1=C(C2=O)c2cc3c(cc2CCN1)OCO3	> 100 µM	> 100 µM	5.9 µM	> 100 µM	> 100 µM	> 100 µM	> 100 µM	97.4 µM	61.2 µM											
COc1cc2noc(-c3ccccc3)c2cc1OC	> 100 µM	> 100 µM	35.4 µM	> 100 µM	> 100 µM	> 100 µM	83.1 µM	94 µM	> 100 µM											
CN1NC2(CCCCC2)ON=C1c1ccccc1	> 100 µM	> 100 µM	> 100 µM	> 100 µM	> 100 µM	> 100 µM	> 100 µM	> 100 µM	> 100 µM											
COCC(=O)CP(=O)(OC)OC	> 100 µM	> 100 µM	> 100 µM	> 100 µM	> 100 µM	> 100 µM	> 100 µM	> 100 µM	> 100 µM											
ClC(Cl)c1nc(-c2cccnc2)n2nc(-c3ccccc3)cc2n1	3.44 µM	2.79 µM				4.94 µM	2.17 µM	5.43 µM		0.472 µM	1.14 µM	4.18 µM	1.14 µM	0.0299 µM	1.9 µM	1.37 µM				
O=C(O)/C(=C/c1c(O)ccc2ccccc12)c1csc(-c2nc(/C(=C\c3c(O)ccc4ccccc34)C(=O)O)cs2)n1	39 µM	25.4 µM	23.2 µM	49.4 µM	23.3 µM	18.8 µM	41.7 µM	31.9 µM	19.1 µM											
COc1c(C(=O)O)oc2c(OC)cccc12	> 100 µM	> 100 µM	> 100 µM	> 100 µM	> 100 µM	> 100 µM	> 100 µM	> 100 µM	> 100 µM											
CN1c2ccccc2N(C)C2C1N(C)c1ccccc1N2C (stereo not given)		65 µM	71.1 µM	> 100 µM	24.9 µM	> 100 µM	84.1 µM	> 100 µM	45.8 µM											
C1CSCCCSCCSCCCSC1	> 100 µM	> 100 µM	> 100 µM	> 100 µM	> 100 µM	> 100 µM	> 100 µM	> 100 µM	> 100 µM											
O=c1cc2ccccc2nn1Cc1ccccc1Cl	> 100 µM	> 100 µM	93.8 µM	> 100 µM	> 100 µM	> 100 µM	> 100 µM	> 100 µM	> 100 µM											
Cc1nc2c(n1C(C)(C)C)C(=O)c1ccccc1C2=O	> 100 µM	> 100 µM	> 100 µM	> 100 µM	> 100 µM	> 100 µM			> 100 µM											
CC1(C)OC(=O)C=C([O-])O1.CC1(C)OC(=O)C=C([O-])O1.O=S(=O)([O-])c1ccc([O-])c2ncccc12.O=S(=O)([O-])c1ccc([O-])c2ncccc12.[Ti+4]	> 100 µM	> 100 µM	> 100 µM	> 100 µM	> 100 µM	> 100 µM	> 100 µM	63.1 µM	> 100 µM	99.7 µM			69.2 µM	> 100 µM	25.9 µM	50.3 µM	> 100 µM	83.4 µM	79.9 µM	78.5 µM
CCC(=O)C(C)C1=Nc2nnc(CCCCCCCc3nnc4n3C(=O)C(C(C)C(=O)CC)=N4)n2C1=O (stereo not given)	> 100 µM	> 100 µM	> 100 µM	> 100 µM	> 100 µM	> 100 µM	> 100 µM	> 100 µM	> 100 µM											
CN(CN1C(=O)C2Cc3ccccc3CN2C1=O)c1ccccn1 (stereo not given)	> 100 µM	> 100 µM		> 100 µM	> 100 µM	> 100 µM	> 100 µM	> 100 µM	> 100 µM											

SMILES	TGI [1]	TGI [2]	TGI [3]	TGI [4]	TGI [5]	TGI [6]	TGI [7]	TGI [8]	TGI [9]	GI50 [1]	GI50 [10]	TGI [10]	GI50 [2]	GI50 [7]	GI50 [8]	GI50 [6]	GI50 [3]	GI50 [4]	GI50 [5]	GI50 [9]
CCNC(=O)C#CC(=O)NCC	> 61.4 µM	> 100 µM	> 100 µM	> 100 µM	> 100 µM	> 100 µM	> 100 µM	> 100 µM	> 100 µM	> 10 µM			> 10 µM	> 100 µM	> 10 µM	> 10 µM	> 10 µM	> 10 µM	> 10 µM	> 10 µM
COC1OC(CO)C(O)C(O)C1Br (stereo not given)	> 100 µM	> 100 µM		> 100 µM	> 100 µM	> 100 µM	> 100 µM	> 100 µM	> 100 µM											
COc1cccc(C(=O)N2CCc3ccccc32)c1OC	61.9 µM	> 100 µM	> 100 µM	> 100 µM	> 100 µM	> 100 µM		> 100 µM	> 100 µM											
O=C1C[C@@H]2C(COC(=O)c3ccccc3)N(OCc3ccccc3)C[C@@H]2O1 (stereo not given in full)	> 100 µM	> 100 µM	> 100 µM	> 100 µM	> 100 µM	> 100 µM	> 100 µM	> 100 µM	> 100 µM											
N=c1nnc(=O)c2c(s1)-n1ncc(C(=O)O)c1NN2		> 100 µM	> 100 µM	> 100 µM	> 100 µM			> 100 µM	> 100 µM											
CC(=O)OC1CC2C(C)(C)C(=O)C=C[C@]2(C)C2CCC3(C)C(c4ccoc4)C(=O)[C@H]4O[C@]43[C@]12C (stereo not given in full)	37.7 µM	82.4 µM	> 100 µM	49.9 µM	64.2 µM	45.1 µM	36.8 µM	42.5 µM	39.9 µM											
O=S(=O)(NCC1CCC(CNc2ccc(Cl)cc2)CC1)c1ccc(-c2ccccc2)cc1 (stereo not given)	> 50 µM	> 50 µM		> 50 µM	> 50 µM	> 50 µM		> 50 µM	> 50 µM	> 50 µM	> 50 µM	> 50 µM	> 50 µM		29.3 µM	18.3 µM		41.4 µM	> 50 µM	> 50 µM
Cn1c(=O)nc2n(-c3cccc(F)c3)c3ccccc3nc-2c1=O	52.3 µM	67.1 µM	78.5 µM	77.1 µM	13 µM	68.2 µM	> 100 µM	74.4 µM	66 µM											
C1CCN(c2nsc(N3CCCCC3)n2)CC1	> 100 µM	> 100 µM	> 100 µM	> 100 µM	> 100 µM	> 100 µM	> 100 µM	> 100 µM	> 100 µM											
Cc1ccc(S(=O)(=O)NC(=O)NC23CC4CC(CC(F)(C4)C2)C3)cc1		> 100 µM	> 100 µM	> 100 µM	> 100 µM	> 100 µM	> 100 µM	> 100 µM	> 100 µM											
O=C(Nc1nc2ccccc2n1Cc1ccccc1)NC12CC3CC(CC(C3)C1)C2	> 100 µM	> 100 µM	49.8 µM	> 100 µM	> 100 µM	> 100 µM		> 100 µM	> 100 µM											
Cc1c(C(=O)NCCO)[n+](=O)c2cc(Cl)ccc2n1[O-]	> 100 µM	> 100 µM	> 100 µM	> 100 µM	> 100 µM	> 100 µM	> 100 µM	> 100 µM	> 100 µM											
CC(=O)OCCOCNC(=S)N/N=C(\C)c1cnc2ccccc2n1	> 100 µM	> 100 µM	> 100 µM	> 100 µM	39.7 µM	> 100 µM	> 100 µM	61.3 µM	> 100 µM											
COc1cccc(NC(=O)CC(=O)N2N=C(N(CCC#N)c3ccccc3C)CC2c2ccccc2)c1 (stereo not given)	> 100 µM	> 100 µM	> 100 µM	> 100 µM	> 100 µM	> 100 µM		> 100 µM	> 100 µM											
NC(=O)N/N=C/C(/C=N/NC(N)=O)[N+](=O)[O-]		> 100 µM	> 100 µM		> 100 µM	> 100 µM	> 100 µM	> 100 µM	> 100 µM											
Cc1c(C(=O)c2ccccc2C(=O)O)c2ccccc2n1C	> 100 µM	> 100 µM	> 100 µM	> 100 µM	> 100 µM	> 100 µM	> 100 µM	> 100 µM	> 100 µM											
CC(=O)O[C@H]1CC[C@@]2(C)C(=CC[C@H]3C4=CC=C(C(C)=O)[C@@]4(C)CCC32)C1 (stereo not given in full)	> 100 µM	> 100 µM	> 100 µM	66.3 µM	46.8 µM	> 100 µM	> 100 µM	> 100 µM	> 100 µM											
